In patent publication US12331046B2, “CTPS1 inhibitors and uses thereof” (Nimbus Clotho, Inc., priority 2020, dated 2025):

Molecular target: human CTPS1 (Homo sapiens (Human), UniProt P17812)
Experiment: hCTPS1 biochemical assay (ADP-Glo)
Settings: hCTPS1 25 nM, ATP 120 uM, UTP 160 uM, GTP 60 uM, L-Glutamine 100 uM, 25 degrees C

Chain of human CTPS1 (P17812 whole entry): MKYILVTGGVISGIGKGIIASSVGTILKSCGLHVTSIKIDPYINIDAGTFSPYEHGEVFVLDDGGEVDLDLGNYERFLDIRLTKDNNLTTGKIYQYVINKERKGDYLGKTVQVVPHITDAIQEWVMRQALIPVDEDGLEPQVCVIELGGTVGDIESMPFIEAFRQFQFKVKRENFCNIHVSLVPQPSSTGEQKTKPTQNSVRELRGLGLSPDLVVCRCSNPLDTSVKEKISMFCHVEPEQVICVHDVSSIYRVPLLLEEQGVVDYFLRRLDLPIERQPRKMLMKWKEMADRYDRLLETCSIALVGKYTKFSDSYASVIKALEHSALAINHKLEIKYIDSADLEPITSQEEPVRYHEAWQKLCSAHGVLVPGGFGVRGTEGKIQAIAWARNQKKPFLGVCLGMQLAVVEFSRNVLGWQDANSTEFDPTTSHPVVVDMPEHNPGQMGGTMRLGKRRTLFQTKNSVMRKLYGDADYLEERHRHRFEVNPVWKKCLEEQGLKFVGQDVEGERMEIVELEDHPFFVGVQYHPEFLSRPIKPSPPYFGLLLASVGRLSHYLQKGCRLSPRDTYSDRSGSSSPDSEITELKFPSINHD

Row | SMILES | IC50 [nM]
1 | CCOc1cncc(-n2cc(C(=O)NC3(c4cccc(NS(=O)(=O)C(F)F)c4)CC3)cn2)n1 [I-274, N-[1-[3-(difluoromethanesulfonamido)phenyl]cyclopropyl]-1-(6-ethoxypyrazin-2-yl)pyrazole-4-carboxamide] | < 100
2 | CCOc1cncc(-c2ccc(C(=O)NCc3cncc(NS(=O)(=O)C4CC4)c3)cc2)n1 [I-36] | < 100
3 | CCOc1cncc(-c2cnc(C(=O)N3CCC[C@H]3c3cccc(NS(=O)(=O)C4CC4)n3)s2)n1 [I-231, N-[6-[(2S)-1-[5-(6-ethoxypyrazin-2-yl)-1,3-thiazole-2-carbonyl]pyrrolidin-2-yl]pyridin-2-yl]cyclopropanesulfonamide] | 100 to 1000
4 | CCOc1cncc(-c2cnc(C(=O)NC(CN3CC(F)C3)c3cc(NS(=O)(=O)C4CC4)ccn3)s2)n1 (centres unmarked) [I-216] | < 100
5 | CCOc1cncc(-n2ccc(C(=O)N3CCC[C@@H]3c3cccc(NS(=O)(=O)C(F)F)c3)n2)n1 [I-79, N-[3-[(2R)-1-[1-(6-ethoxypyrazin-2-yl)pyrazole-3-carbonyl]pyrrolidin-2-yl]phenyl]-1,1-difluoromethanesulfonamide] | ≥ 1000
6 | CCOc1cncc(-c2cnc(C(=O)N[C@@H](CN3CCOCC3)c3cc(NS(=O)(=O)C4CC4)ccn3)s2)n1 (single isomer, unassigned) [I-235] | < 100
7 | CCC[C@@H]1CCN1c1ncc(C(=O)NCc2cc(NS(=O)(=O)C3CC3)ccn2)nc1C [I-60, (R)—N-((4-(cyclopropanesulfonamido)pyridin-2-yl)methyl)-6-methyl-5-(2-propylazetidin-1-yl)pyrazine-2-carboxamide] | ≥ 1000
8 | CCOc1cncc(-c2ncc(C(=O)NCc3cc(NS(=O)(=O)C4CC4)ccn3)s2)n1 [I-32] | < 100
9 | CCOC[C@H](NC(=O)c1ncc(-c2cncc(OCC)n2)s1)c1cc(NS(=O)(=O)C2CC2)ccn1 [I-96, (R)—N-(1-(4-(cyclopropanesulfonamido)pyridin-2-yl)-2-ethoxyethyl)-5-(6-ethoxypyrazin-2-yl)thiazole-2-carboxamide] | < 100
10 | CCOc1cncc(-c2cnc(C(=O)N[C@H](c3cc(NS(=O)(=O)C4CC4)ccn3)[C@H]3C[C@@H](N(C)C)C3)s2)n1 (single isomer, unassigned) [I-105] | < 100
11 | CCOc1cncc(-c2ccc(C(=O)N[C@H](CC)c3cc(NS(=O)(=O)C4CC4)ccn3)c(F)c2)n1 [I-72] | < 100
12 | CCOc1cncc(-c2ncc(C(=O)NCc3cc(NS(=O)(=O)C4CC4)ccn3)o2)n1 [I-44] | ≥ 1000
13 | CCOc1cncc(-c2cnc(C(=O)N[C@](C)(COC)c3cc(NS(=O)(=O)C4CC4)ccn3)s2)n1 [I-90, (S)—N-(2-(4-(cyclopropanesulfonamido)pyridin-2-yl)-1-methoxypropan-2-yl)-5-(6-ethoxypyrazin-2-yl)thiazole-2-carboxamide] | < 100
14 | CCOc1cncc(-c2cnc(C(=O)N[C@H](CN3CCCCC3)c3cc(NS(=O)(=O)C4CC4)ccn3)s2)n1 (single isomer, unassigned) [I-213] | < 100
15 | CCOc1cncc(-c2cnc(C(=O)N3CCC[C@@H]3c3cncc(NS(=O)(=O)C4CC4)c3)s2)n1 [I-225, (R)—N-(5-(1-(5-(6-ethoxypyrazin-2-yl)thiazole-2-carbonyl)pyrrolidin-2-yl)pyridin-3-yl)cyclopropanesulfonamide] | < 100
16 | CCOc1cncc(-c2ncc(C(=O)N3CCC[C@@H]3c3cc(NS(=O)(=O)C4CC4)ccn3)s2)n1 [I-76, N-[2-[(2R)-1-[2-(6-ethoxypyrazin-2-yl)-1,3-thiazole-5-carbonyl]pyrrolidin-2-yl]pyridin-4-yl]cyclopropanesulfonamide] | 100 to 1000
17 | CCOc1cncc(-c2ccc(NC(=O)C(NC(=O)CCOCCOCCNC(=O)OC(C)(C)C)c3csc(NS(=O)(=O)C4CC4)n3)cc2)n1 (centres unmarked) [Z-8, tert-butyl 2-(2-(3-(1-(2-(cyclopropanesulfonamido)thiazol-4-yl)-2-(4-(6-ethoxypyrazin-2-yl)phenylamino)-2-oxoethylamino)-3-oxopropoxy)ethoxy)ethylcarbamate] | < 100
18 | CCOc1cncc(-c2cnc(C(=O)N[C@H](C[C@@H]3CCCCN3C)c3cc(NS(=O)(=O)C4CC4)ccn3)s2)n1 (single isomer, unassigned) [I-136] | < 100
19 | CCOc1cncc(-c2cccc(C(=O)NCc3cccc(NS(=O)(=O)C(F)F)c3)c2)n1 [I-280, N-[[3-(difluoromethanesulfonamido)phenyl]methyl]-3-(6-ethoxypyrazin-2-yl)benzamide] | ≥ 1000
20 | C[C@@H]1Cc2nc(C(=O)NCc3cc(NS(=O)(=O)C4CC4)ccn3)cnc2N(C2CCC2)C1 [I-264, (R)-5-cyclobutyl-N-((4-(cyclopropanesulfonamido)pyridin-2-yl)methyl)-7-methyl-5,6,7,8-tetrahydropyrido[2,3-b]pyrazine-2-carboxamide] | ≥ 1000
21 | O=C(NCc1cc(NS(=O)(=O)C2CC2)ccn1)c1ncc(-c2cncc(C(F)(F)F)n2)s1 [I-253] | < 100
22 | CCOc1cncc(-c2cnc(C(=O)N[C@@H](c3cc(NS(=O)(=O)C4CC4)ccn3)[C@H]3CCOC3)s2)n1 (single isomer, unassigned) [I-92] | < 100
23 | CCOc1cncc(-c2cnc(C(=O)N[C@@H](CN3C[C@H]4C[C@@H]3CO4)c3cc(NS(=O)(=O)C4CC4)ccn3)s2)n1 [I-113, N—((S)-2-((1R,4R)-2-oxa-5-azabicyclo[2.2.1]heptan-5-yl)-1-(4-(cyclopropanesulfonamido)pyridin-2-yl)ethyl)-5-(6-ethoxypyrazin-2-yl)thiazole-2-carboxamide] | < 100
24 | CCOc1cncc(-c2ccc(NC(=O)Cc3cc(NS(=O)(=O)C4CC4)ccn3)nc2)n1 [I-40, 2-(4-(cyclopropanesulfonamido)pyridin-2-yl)-N-(5-(6-ethoxypyrazin-2-yl)pyridin-2-yl)acetamide] | < 100
25 | CCOc1cncc(-c2ccc(C(=O)N3CCC[C@@H]3c3cc(NS(=O)(=O)C4CC4)ccn3)c(F)c2)n1 [I-75, N-[2-[(2R)-1-[4-(6-ethoxypyrazin-2-yl)-2-fluorobenzoyl]pyrrolidin-2-yl]pyridin-4-yl]cyclopropanesulfonamide] | 100 to 1000
26 | CCOc1cncc(-c2cnc(C(=O)NC(CCN3CCCCC3)c3cc(NS(=O)(=O)C4CC4)ccn3)s2)n1 (centres unmarked) [I-176, N-(1-(4-(cyclopropanesulfonamido)pyridin-2-yl)-3-(piperidin-1-yl)propyl)-5-(6-ethoxypyrazin-2-yl)thiazole-2-carboxamide] | < 100
27 | O=C(NCc1cc(NS(=O)(=O)C2CC2)ccn1)c1ncc(-c2cnn3ccccc23)s1 [I-237, N-((4-(cyclopropanesulfonamido)pyridin-2-yl)methyl)-5-(pyrazolo[1,5-a]pyridin-3-yl)thiazole-2-carboxamide] | 100 to 1000
28 | CCOc1cncc(-c2ccc3c(c2)CN(C2(c4csc(NS(=O)(=O)C5CC5)n4)CC2)C3=O)n1 [I-13, N-(4-(1-(5-(6-ethoxypyrazin-2-yl)-1-oxoisoindolin-2-yl)cyclopropyl)thiazol-2-yl)cyclopropanesulfonamide] | 100 to 1000
29 | CCOc1cncc(-c2cnc(C(=O)N[C@](C)(CCOC)c3cc(NS(=O)(=O)C4CC4)ccn3)s2)n1 [I-157, (R)—N-(2-(4-(cyclopropanesulfonamido)pyridin-2-yl)-4-methoxybutan-2-yl)-5-(6-ethoxypyrazin-2-yl)thiazole-2-carboxamide] | 100 to 1000
